The experiment concerns the target Beta-lactamase (Escherichia coli (strain K12), UniProt P00811). Briefly: Beta-lactamase AmpC Inhibition Assay. To be noted: pH 7. From the text: Class C Beta-lactamase AmpC inhibition assay

SMILES strings stand for the structures.

Beta-lactamase, sequence (P00811 whole entry): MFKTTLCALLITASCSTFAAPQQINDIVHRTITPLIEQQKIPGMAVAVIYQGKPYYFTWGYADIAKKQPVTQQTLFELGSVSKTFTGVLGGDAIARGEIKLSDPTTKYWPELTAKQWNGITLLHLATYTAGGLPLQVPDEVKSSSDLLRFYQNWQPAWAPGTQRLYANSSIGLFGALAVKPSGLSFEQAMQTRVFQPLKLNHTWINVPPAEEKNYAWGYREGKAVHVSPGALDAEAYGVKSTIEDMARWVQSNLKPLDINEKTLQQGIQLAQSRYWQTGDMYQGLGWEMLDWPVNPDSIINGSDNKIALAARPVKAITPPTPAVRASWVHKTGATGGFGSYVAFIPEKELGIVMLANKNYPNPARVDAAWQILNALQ

By Ki is commonly meant a measure of affinity in units of concentration, obtained from inhibition or displacement. For `O=c1c2c3c(sc2ncn1Cc1nn[nH]n1)CCCC3` [CID 7263523], affinity was put at a Ki of 1500 µM.

`O=C(Nc1cccc(-c2nnn[nH]2)c1)c1cccc(F)c1` [CID8067740] came in with a Ki of 2800 µM. This Ki lies about 1.9-fold higher than the previous one.

Compound `CCc1c(C)[nH]n(-c2nnn[nH]2)c1=O` [CID7357365] registered a Ki of 3100 µM. This Ki and that of the compound before are within 1.5-fold of each other.

`O=C1c2ccccc2C(=O)N1CCc1nnn[nH]1` [CID7129233] came in with a Ki of 3300 µM. This Ki and that of the compound before are within 1.5-fold of each other.

In the case of `O=C(O)CN1C(=O)O[C@@H](c2ccccc2)C1=O` [CID25181261], the Ki is 3500 µM.

In turn, `C[C@@H](C(=O)O)N1C(=O)C2C3CCC(C3)C2C1=O` (stereo partly specified) [CID25181259] came in with a Ki of 2200 µM.

These data come from BindingDB's records for doi:10.1038/nchembio.155 (University of California San Francisco, 2009).
